How the values were obtained:
Assay type in all cases: biochemical
ROCK-II(h) = ROCK-II(h) (Homo sapiens, UniProt O75116); experiment: ROCK-II(h) kinase assay; conditions: 3 μM; percent of control kinase activity
Procedure: (§1) Six compounds (presumptive single agents) were tested against a panel of 50 kinases. The results are presented in Table 2; numbers for each kinase indicate the percent of control kinase activity in the presence of a 3μM concentration of the indicated agent.
(§2) Agents that target two or more different kinases are useful in the methods of the invention as described elsewhere herein. Such compounds may be identified, and their effect on certain kinases may be identified, using the assays briefly described below in Examples 4-83. Each of these assays was carried out as described in Davies et al., Biochem. J., 351:95-105 (2000). All assays were carried out at 10 μM ATP unless otherwise noted.
(§3) In a final reaction volume of 25 μl, ROCK-II (h) (5-10 mU) is incubated with 50 mM Tris pH 7.5, 0.1 mM EGTA, 30 μM […] (SEQ ID NO:8), 10 mM MgAcetate and [γ-^33P-ATP] (specific activity approx. 500 cpm/pmol, concentration as required). The reaction is initiated by the addition of Mg^2+ [γ-^33P-ATP]. After incubation for 40 minutes at room temperature, the reaction is stopped by the addition of 5 μl of a 3% phosphoric acid solution. 10 μl of the reaction is then spotted onto a P30 filtermat and washed three times for 5 minutes in 75 mM phosphoric acid and once in methanol prior to drying and scintillation counting.

PAK2(h) = PAK2(h) (Homo sapiens, UniProt Q13177); experiment: PAK2(h) kinase assay; conditions: 3 μM; percent of control kinase activity
PAK2(h), sequence (Q13177 whole entry): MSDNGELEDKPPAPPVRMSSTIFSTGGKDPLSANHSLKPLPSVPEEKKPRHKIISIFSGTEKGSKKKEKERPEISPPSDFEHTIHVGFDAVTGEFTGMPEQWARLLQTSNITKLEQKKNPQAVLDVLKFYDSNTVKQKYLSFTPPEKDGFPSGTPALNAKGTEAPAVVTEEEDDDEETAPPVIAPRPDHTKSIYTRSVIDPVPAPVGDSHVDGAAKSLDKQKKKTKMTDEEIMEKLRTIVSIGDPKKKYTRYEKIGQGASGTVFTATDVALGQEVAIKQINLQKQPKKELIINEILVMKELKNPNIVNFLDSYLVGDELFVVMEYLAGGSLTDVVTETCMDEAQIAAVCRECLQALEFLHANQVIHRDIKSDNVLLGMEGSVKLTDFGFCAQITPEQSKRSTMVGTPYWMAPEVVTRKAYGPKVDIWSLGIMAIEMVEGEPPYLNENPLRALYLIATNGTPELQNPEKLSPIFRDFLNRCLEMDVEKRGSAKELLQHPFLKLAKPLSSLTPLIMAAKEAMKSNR
Procedure: as §1, §2
as §3, with “μl, PAK2(h)” for “μl, ROCK-II (h)”, “with 8” for “with 50”, “mM MOPS” for “mM Tris”, “pH 7.0, 0.2” for “pH 7.5, 0.1”, “mM EDTA,” for “mM EGTA,”

PRAK(h) = molecular target: T1, PRAK(h) (Homo sapiens, UniProt Q8IW41); experiment: PRAK(h) kinase assay; conditions: 3 μM; percent of control kinase activity
T1 sequence (Q8IW41 1-473): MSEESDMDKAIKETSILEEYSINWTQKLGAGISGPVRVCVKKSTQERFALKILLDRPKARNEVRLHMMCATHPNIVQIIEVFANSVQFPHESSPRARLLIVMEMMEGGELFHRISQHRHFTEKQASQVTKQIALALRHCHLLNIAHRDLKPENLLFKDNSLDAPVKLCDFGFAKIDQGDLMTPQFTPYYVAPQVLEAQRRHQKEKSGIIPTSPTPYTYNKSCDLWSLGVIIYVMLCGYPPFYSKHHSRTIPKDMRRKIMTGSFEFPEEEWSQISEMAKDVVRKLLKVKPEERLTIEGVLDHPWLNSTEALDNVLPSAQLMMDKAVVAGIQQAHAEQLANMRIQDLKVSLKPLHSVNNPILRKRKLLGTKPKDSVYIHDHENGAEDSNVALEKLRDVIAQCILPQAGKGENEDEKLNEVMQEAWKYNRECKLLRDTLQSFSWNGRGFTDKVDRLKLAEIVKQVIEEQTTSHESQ
Procedure: as §1, §2
as §3, with “PRAK” for “ROCK-II”, “Na-β-glycerophosphate” for “Tris”, “NO11),” for “NO:8),”, “50” for “75”

CHK2(h) = CHK2(h) (Homo sapiens, UniProt O96017); experiment: CHK2(h) kinase assay; conditions: 3 μM; percent of control kinase activity
CHK2(h), sequence (O96017 whole entry): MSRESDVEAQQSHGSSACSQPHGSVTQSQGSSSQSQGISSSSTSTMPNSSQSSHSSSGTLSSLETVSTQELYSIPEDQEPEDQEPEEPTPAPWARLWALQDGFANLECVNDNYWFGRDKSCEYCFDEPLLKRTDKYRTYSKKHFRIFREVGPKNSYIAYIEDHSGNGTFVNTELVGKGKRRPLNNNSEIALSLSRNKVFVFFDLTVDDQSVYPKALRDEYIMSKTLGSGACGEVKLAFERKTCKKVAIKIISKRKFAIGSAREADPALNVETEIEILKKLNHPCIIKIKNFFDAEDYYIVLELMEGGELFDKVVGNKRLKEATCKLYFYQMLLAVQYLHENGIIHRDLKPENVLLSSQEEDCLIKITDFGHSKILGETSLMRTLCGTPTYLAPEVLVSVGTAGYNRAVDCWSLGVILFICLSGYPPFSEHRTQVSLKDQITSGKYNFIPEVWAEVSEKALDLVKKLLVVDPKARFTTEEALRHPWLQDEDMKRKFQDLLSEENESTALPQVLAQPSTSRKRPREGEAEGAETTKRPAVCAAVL
Procedure: as §1, §2
as §3, with “μl, CHK2” for “μl, ROCK-II”, “with 8” for “with 50”, “mM MOPS” for “mM Tris”, “pH 7.0,0.2” for “pH 7.5, 0.1”, “mM EDTA, 200” for “mM EGTA, 30”, “ID NO:5),” for “ID NO:8),”

Yes(h) = Yes(h) (Homo sapiens, UniProt P07947); experiment: Yes(h) kinase assay; conditions: for Inhibitory activity (% of control), Yes(h): 3 μM, percent of control kinase activity
Yes(h), sequence (P07947 whole entry): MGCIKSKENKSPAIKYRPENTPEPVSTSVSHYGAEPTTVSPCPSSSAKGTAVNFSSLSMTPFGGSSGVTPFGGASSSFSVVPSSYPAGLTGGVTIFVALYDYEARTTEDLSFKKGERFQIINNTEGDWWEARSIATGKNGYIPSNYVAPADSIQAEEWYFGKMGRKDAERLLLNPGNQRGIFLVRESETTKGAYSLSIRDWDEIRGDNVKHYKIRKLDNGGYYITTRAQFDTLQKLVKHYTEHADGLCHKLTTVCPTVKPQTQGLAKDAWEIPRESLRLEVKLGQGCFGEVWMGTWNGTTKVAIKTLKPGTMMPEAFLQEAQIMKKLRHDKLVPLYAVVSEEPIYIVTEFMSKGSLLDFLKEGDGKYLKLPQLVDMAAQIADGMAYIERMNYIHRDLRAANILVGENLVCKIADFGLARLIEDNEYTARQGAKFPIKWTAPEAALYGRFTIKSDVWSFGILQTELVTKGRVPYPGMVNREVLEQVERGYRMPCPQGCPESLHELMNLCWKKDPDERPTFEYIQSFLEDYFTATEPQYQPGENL
Procedure: as §1, §2
In a final reaction volume of 25 μl, Yes(h) (5-10 mU) is incubated with 8 mM MOPS pH 7.0, 0.2 mM EDTA, 0.1 mg/ml poly(Glu, Tyr) 4:1, 10 mM MgAcetate and [γ-^33P-ATP] (Specific activity approx. 500 cpm/pmol, concentration as required). The reaction is initiated by the addition of Mg^2+ [γ-^33P-ATP]. After incubation for 40 minutes at room temperature, the reaction is stopped by the addition of 5 μl of a 3% phosphoric acid solution. 10 μl of the reaction is then spotted onto a Filtermat A and washed three times for 5 minutes in 75 mM phosphoric acid and once in methanol prior to drying and scintillation counting.

Aurora-A(h) = molecular target: T2, Aurora-A(h) (Homo sapiens, UniProt O14965); experiment: Aurora-A(h) kinase assay; conditions: 3 μM; percent of control kinase activity
T2 sequence (O14965 1-403): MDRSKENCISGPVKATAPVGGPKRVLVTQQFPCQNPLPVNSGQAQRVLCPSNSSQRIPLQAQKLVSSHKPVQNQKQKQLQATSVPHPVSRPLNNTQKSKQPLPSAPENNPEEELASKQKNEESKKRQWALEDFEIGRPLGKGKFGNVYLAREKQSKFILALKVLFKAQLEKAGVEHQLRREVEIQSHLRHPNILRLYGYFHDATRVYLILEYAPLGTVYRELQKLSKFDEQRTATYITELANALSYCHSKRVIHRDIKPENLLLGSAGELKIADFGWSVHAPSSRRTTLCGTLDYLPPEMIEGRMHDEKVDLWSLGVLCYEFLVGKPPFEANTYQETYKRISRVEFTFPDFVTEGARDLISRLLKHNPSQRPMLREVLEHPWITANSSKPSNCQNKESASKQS
Procedure: as §1, §2

ROCK-II(h), sequence (O75116 whole entry): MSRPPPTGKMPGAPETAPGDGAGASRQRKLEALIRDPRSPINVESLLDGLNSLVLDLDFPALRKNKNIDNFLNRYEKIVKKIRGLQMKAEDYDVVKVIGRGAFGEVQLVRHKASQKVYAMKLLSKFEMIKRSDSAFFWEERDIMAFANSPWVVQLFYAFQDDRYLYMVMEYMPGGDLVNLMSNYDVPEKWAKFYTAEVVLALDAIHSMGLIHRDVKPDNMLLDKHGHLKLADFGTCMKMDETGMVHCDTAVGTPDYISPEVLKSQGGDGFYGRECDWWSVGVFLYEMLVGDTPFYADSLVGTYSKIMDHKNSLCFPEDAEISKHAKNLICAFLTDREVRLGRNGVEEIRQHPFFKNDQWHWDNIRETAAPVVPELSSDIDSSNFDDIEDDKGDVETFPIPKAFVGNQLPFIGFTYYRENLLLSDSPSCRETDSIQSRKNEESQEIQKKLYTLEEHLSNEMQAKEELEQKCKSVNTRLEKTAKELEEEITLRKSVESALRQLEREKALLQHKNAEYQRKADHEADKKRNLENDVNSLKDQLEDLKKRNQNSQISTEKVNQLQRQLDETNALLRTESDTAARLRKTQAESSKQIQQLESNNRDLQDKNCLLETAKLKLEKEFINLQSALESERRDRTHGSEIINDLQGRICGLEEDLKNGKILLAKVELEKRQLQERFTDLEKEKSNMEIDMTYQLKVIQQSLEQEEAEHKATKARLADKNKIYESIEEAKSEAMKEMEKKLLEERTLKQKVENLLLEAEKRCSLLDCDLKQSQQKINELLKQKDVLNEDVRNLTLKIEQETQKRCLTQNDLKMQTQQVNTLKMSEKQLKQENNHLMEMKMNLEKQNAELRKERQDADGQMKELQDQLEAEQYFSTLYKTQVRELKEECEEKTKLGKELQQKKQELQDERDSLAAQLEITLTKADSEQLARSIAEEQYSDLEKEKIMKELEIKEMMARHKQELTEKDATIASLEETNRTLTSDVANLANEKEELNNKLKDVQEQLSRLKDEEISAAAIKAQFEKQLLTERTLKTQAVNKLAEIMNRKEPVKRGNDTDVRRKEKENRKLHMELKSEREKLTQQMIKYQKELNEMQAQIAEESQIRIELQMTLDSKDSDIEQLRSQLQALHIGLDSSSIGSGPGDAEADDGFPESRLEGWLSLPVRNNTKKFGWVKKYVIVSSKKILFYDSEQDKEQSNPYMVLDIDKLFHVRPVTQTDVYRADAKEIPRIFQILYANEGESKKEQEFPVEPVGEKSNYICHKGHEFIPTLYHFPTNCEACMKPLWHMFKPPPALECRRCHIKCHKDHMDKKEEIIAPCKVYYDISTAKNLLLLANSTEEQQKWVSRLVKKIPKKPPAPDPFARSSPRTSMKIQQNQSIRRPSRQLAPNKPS

Structure (SMILES) | Inhibitory activity (% of control), ROCK-II(h) (ROCK-II(h)) | Inhibitory activity (% of control), PAK2(h) (PAK2(h)) | Inhibitory activity (% of control), PRAK(h) (PRAK(h)) | Inhibitory activity (% of control), CHK2(h) (CHK2(h)) | Inhibitory activity (% of control), Yes(h) (Yes(h)) | Inhibitory activity (% of control), Aurora-A(h) (Aurora-A(h)) | inhibitory activity against Yes, in words (Yes(h); summary of Table 2)
COc1ccc2cc(-c3n[nH]c4ccc(-c5n[nH]c(CN6CCOCC6)n5)cc34)ccc2c1 [CC001, 3-(6-Methoxynaphthalen-2-yl)-5-(5-Morpholin-4-Ylmethyl-1H-[1,2,4]Triazol-3-yl)-1H-Indazole] | 4 % of control | 68 % of control | 12 % of control | 2 % of control | 2 % of control | 7 % of control | –
CC(C)Cc1nc(-c2ccc3[nH]nc(-c4ccc5cc(OCCN6CCCC6)ccc5c4)c3c2)n[nH]1 [CC002, 5-(5-Isobutyl-1H-[1,2,4]Triazol-3-yl)-3-[6-(2-Pyrrolidin-1-yl-Ethoxy)-Naphthalen-2-yl]-1H-Indazole] | 2 % of control | 21 % of control | 6 % of control | 1 % of control | −3 % of control | – | –
CC(C)(C)Cc1nc(-c2ccc3[nH]nc(-c4ccc5cc(OCc6ccccn6)ccc5c4)c3c2)n[nH]1 [CC004, 5-[5-(2,2-Dimethyl-propyl)-1H-[1,2,4]triazol-3-yl]-3-[6-(pyridine-2-ylmethoxy)-naphthalen-2-yl]-1H-indazole] | 5 % of control | 62 % of control | 24 % of control | 7 % of control | 24 % of control | 7 % of control | somewhat less inhibitory activity
CCN1CCC[C@H]1COc1ccc2cc(-c3n[nH]c4ccc(-c5nc(CC(C)(C)C)n[nH]5)cc34)ccc2c1 [CC005, 2-[((2s)-1-ethylpyrrolidin-2-yl)methoxy]-6-{5-[3-(2,2-Dimethylpropyl)(1H-1,2,4,-triazol-5-yl)](1H-indazol-3-yl)}naphthalene] | 2 % of control | 13 % of control | 10 % of control | 1 % of control | 0 % of control | 0 % of control | –

Continued, values first:

Inhibitory activity (% of control), ROCK-II(h) (ROCK-II(h)) | Inhibitory activity (% of control), PAK2(h) (PAK2(h)) | Inhibitory activity (% of control), PRAK(h) (PRAK(h)) | Inhibitory activity (% of control), CHK2(h) (CHK2(h)) | Inhibitory activity (% of control), Yes(h) (Yes(h)) | Inhibitory activity (% of control), Aurora-A(h) (Aurora-A(h)) | inhibitory activity against Yes, in words (Yes(h); summary of Table 2) | Structure (SMILES)
13 % of control | 56 % of control | 12 % of control | 20 % of control | 57 % of control | – | – | Fc1ccc(-c2n[nH]c3ccc(-c4n[nH]c(C5CCCC5)n4)cc23)cc1 [CC006, 5-(5-Cyclopentyl-1H-[1,2,4]triazol-3-yl)-3-(4-fluoro-phenyl)-1H-indazole, reference compound]
69 % of control | 86 % of control | 0 % of control | 6 % of control | 50 % of control | – | – | O=C(NC1CCCC1)c1cccc(-c2n[nH]c3ccc(-c4nc[nH]n4)cc23)c1 [CC007, 3-(5-(1H-1,2,4-triazol-3-yl)(1H-indazol-3-yl))phenyl-N-cyclopentylcarboxamide, reference compound]
